Read-outs that look alike come from different tables or passages of the source.
Columns and labels:
[1] = tested on: PC3 cells; experiment: MTS viability assay, PC3 prostate cancer cells; type: cell-based, human
Method: (§1) FIG. 2E. Effects of compounds 1-11 on the viability of PC3 cells. PC3 cells were cultured in F12K medium supplemented with 10% FBS. Equal numbers were dispersed into 96-well plates. After 24 h, the cells were incubated with compounds 1-11 (0-30 μM) for 48 h. At the end of the incubation, MTS reagent (20% vol/vol) was added and the plates were incubated for 1-4 h. The OD490 was read with a plate reader. Wells with media but no cells were treated in similar fashion and the values utilized as blank. The results represent the mean±standard deviation of 6 independent determinations.
(§2) The cell lines were cultured from frozen stocks originally obtained from ATCC. MDA-MB-231, JIMT-1, DU145, U81, U251 cells were grown in DMEM medium. BT474, A2780s, A2780cp cells were grown in DMEM/F12 medium supplemented with 10% FBS. MiaPaCa2 was cultured in DMEM supplemented with 10% FBS and 2.5% horse serum. PC3 cells were cultured in F12K medium supplemented with 10% FBS. All the media were supplemented with penicillin/streptomycin.
(§3) The effects of the GAELs on the viability of the various epithelial cancer cell lines was determined as previously described. Briefly, equal numbers of the cells were dispersed into 96-well plates. After 24 h, the cells were incubated with the compounds (0-30 μM) for 48 h. At the end of the incubation, MTS reagent (20% vol/vol) was added and the plates were incubated for 1-4 h. The OD490 was read with a plate reader. Wells with media but no cells were treated in similar fashion and the values utilized as blank. The results represent the mean±standard deviation of 6 independent determinations.

[2] = tested on: BT-474 cells; experiment: MTS viability assay, BT-474 breast cancer cells; type: cell-based, human
Method: as §1, with “2C.” for “2E.”, “BT-474” for “PC3”, “DMEM/F12” for “F12K”
as §2, §3

[3] = tested on: JIMT-1 cells; experiment: MTS viability assay, JIMT-1 breast cancer cells; type: cell-based, human
Method: as §1, with “2B.” for “2E.”, “JIMT-1” for “PC3”, “DMEM” for “F12K”
as §1, with “2J.” for “2E.”, “1, 69-72” for “1-11”, “JIMT-1” for “PC3”, “DMEM” for “F12K”, “1, 69-72” for “1-11 (0-30 μM)”
as §2, §3

[4] = tested on: EOC 216H primary ovarian cancer cells; experiment: MTS viability, primary epithelial ovarian cancer cells EOC 216H; type: cell-based; conditions: Homo sapiens
Method: (§4) FIG. 2L to 2N. Effects of compounds 1, 56 or 69 on the viability of primary epithelial ovarian cancer cells grown as adherent and spheroid cultures. EOC cells were isolated from the ascites of ovarian cancer patients. Cells were seeded in regular 96-well plates and grown as adherent cultures. 24 h after seeding the cells were incubated with compounds 1, 56, or 69 for 48 h and the viability of the cells were determined with the MTS assay. Spheroid cultures were obtained by seeding the cells in ultra-low adhesion 96-well plates for 3 days. The spheroids were incubated with compounds 1, 56 or 69 for 3 days. At the end of the incubations, MTS reagent (20% vol/vol) was added and the plates were incubated for 1-4 h. The OD490 was read with a plate reader. Wells with media but no cells were treated in similar fashion and the values utilized as blank. The results represent the mean±standard deviation of 6 independent determinations.
(§5) 4.3.1.2. Isolation of primary epithelial ovarian cancer cells (EOC) from ascites fluid of ovarian cancer patients. The isolation of EOC cells from the ascites fluid of ovarian cancer patients was performed as described by Shepherd et al 2007, Nature protocols 1, 2643-2649). The cells were grown in DMEM/F12 supplemented with 10% FBS medium. 4.3.2. Isolation of breast cancer stem cells from BT-474, prostate cancer stem cells from DU145, and ovarian cancer stem cells from A2780cp cell lines and determination of the effect of GAELs on the viability of the cancer stem cells.

[5] = tested on: EOC258 primary ovarian cancer cells; experiment: MTS viability, primary epithelial ovarian cancer cells EOC258; type: cell-based; conditions: Homo sapiens
Method: as §4, §5

[6] = tested on: EOC260 primary ovarian cancer cells; experiment: MTS viability, primary epithelial ovarian cancer cells EOC260; type: cell-based; conditions: Homo sapiens; adherent culture, 48 h
Method: as §4
4.3.1.2. Isolation of primary epithelial ovarian cancer cells (EOC) from ascites fluid of ovarian cancer patients. The isolation of EOC cells from the ascites fluid of ovarian cancer patients was performed as described by Shepherd et al 2007, Nature protocols 1, 2643-2649). The cells were grown in DMEM/F12 supplemented with 10% FBS medium. 4.3.2. […]

[7] = tested on: EOC216B primary ovarian cancer cells; experiment: MTS viability, primary epithelial ovarian cancer cells EOC216B; type: cell-based; conditions: Homo sapiens
Method: as §4, §5

[8] = Table 1A, 48 h, MTS, read-out: CC50 values PC3
[9] = Table 1B, 48 h, MTS, read-out: CC90 values PC3
[10] = Table 1A, 48 h, MTS, read-out: CC50 values BT474
[11] = Table 1B, 48 h, MTS, read-out: CC90 values BT474
[12] = Table 1A, 48 h, read-out: CC50 values JIMT1
[13] = Table 1B, 48 h, read-out: CC90 values JIMT1
[14] = Homo sapiens, PC-3, Table 5, 48 h, MTS, read-out: CC50 PC3
[15] = Homo sapiens, PC-3, Table 5, 48 h, MTS, read-out: CC90 PC3
[16] = adherent culture, 48 h, read-out: CC50 values EOC 216H Adherent
[17] = spheroid culture, 3 days, read-out: CC50 values EOC 216H Spheroid
[18] = 72 h, spheroid culture, 3 days, read-out: CC50 values EOC258 Spheroid
[19] = adherent culture, 48 h, read-out: CC50 values EOC258 Adherent
[20] = 72 h, spheroid culture, 3 days, read-out: CC50 values EOC216B Spheroid
[21] = adherent culture, 48 h, read-out: CC50 values EOC216B Adherent
[22] = Homo sapiens, JIMT-1, Table 5, 48 h, read-out: CC50 JIMT1
[23] = Homo sapiens, JIMT-1, Table 5, 48 h, read-out: CC90 JIMT1

Structure (SMILES)	CC50 [1, 8] [µM]	CC90 [1, 9] [µM]	CC50 [2, 10] [µM]	CC90 [2, 11] [µM]	CC50 [3, 12] [µM]	CC90 [3, 13] [µM]	CC50 [1, 14] [µM]	CC90 [1, 15] [µM]	CC50 [4, 16] [µM]	CC50 [4, 17] [µM]	CC50 [5, 18] [µM]	CC50 [5, 19] [µM]	CC50 [6] [µM]	CC50 [7, 20] [µM]	CC50 [7, 21] [µM]	CC50 [3, 22] [µM]	CC90 [3, 23] [µM]	further results
CCCCCCCCCCCCCCCCOC[C@@H](CN=[N+]=[N-])O[C@@H]1O[C@H](CO)[C@@H](O)[C@H](O)[C@H]1N [Compound 6, 1-O-Hexadecyloxy-2R-(2′-amino-2′-deoxy-β-D-glucopyranosyl)-3-azido glycerol]	6	15	22	28	9.5	13.5	–	–	–	–	–	–	–	–	–	–	–	CC50 ([1]; read-out: CC50 against PC-3 cell lines): 6 µM; CC50 ([2]; read-out: CC50 against BT 474 cell lines): 22 µM
CCCCCCCCCCCCCCCCOC[C@H](COC1O[C@H](CNCCCCCCCCCCCCN)[C@@H](O)[C@H](O)[C@H]1N)OC (some centres unmarked) [Compound 73, 1-O-Hexadecyl-2-O-methyl-3-O-[6′-N-(12-aminododecyl)-2′,6′-diamino-2′,6′-dideoxy-glucopyranoside]-sn-glycerol]	–	–	–	–	–	–	–	–	–	–	–	–	–	–	–	–	–	CC50 ([1]; Table 6, 48 h, MTS, read-out: PC3 CC50): 2 µM; CC90 ([1]; Table 6, 48 h, MTS, read-out: PC3 CC90): 3.2 µM; CC50 ([2]; Table 6, 48 h, MTS, read-out: BT474 CC50): 1.6 µM; CC90 ([2]; Table 6, 48 h, MTS, read-out: BT474 CC90): 4.2 µM; CC50 ([3]; Table 6, 48 h, read-out: JIMT1 CC50): 3.4 µM; CC90 ([3]; Table 6, 48 h, read-out: JIMT1 CC90): 4.6 µM
CCCCCCCCCCCCCCCCOCC(CO[C@@H]1O[C@H](CN)[C@@H](O)[C@H](O)[C@H]1N)O[C@@H]1O[C@H](CN)[C@@H](O)[C@H](O)[C@H]1N (stereo partly drawn) [Compound 5, 1-O-Hexadecyloxy-2S/R, 3-di(-2′,6′-diamino-2′, 6′-dideoxy-β-D-glucopyranosyl)-glycerol]	> 30	> 30	> 30	> 30	> 30	> 30	–	–	–	–	–	–	–	–	–	–	–	–
CCCCCCCCCCCCCCCCOC[C@H](CO[C@H]1O[C@H](CN)[C@@H](O)[C@H](O)[C@H]1N)OC [Compound 1, 1-O-Hexadecyl-2-O-methyl-3-O-(2′,6′-diamino-2′,6′-dideoxy-α-D-glucopyranosyl)-sn-glycerol]	–	–	–	–	–	–	3.5	6	0.15	0.21	0.6	0.3	0.2	0.6	0.24	3.5	4.9	CC50 ([1]; Homo sapiens, PC-3, Table 1A, 48 h, MTS, read-out: CC50 values PC3): 3.5 µM; CC90 ([1]; Homo sapiens, PC-3, Table 1B, 48 h, MTS, read-out: CC90 values PC3): 6 µM; CC50 ([2]; Homo sapiens, BT-474, Table 1A, 48 h, MTS, read-out: CC50 values BT474): 7.5 µM; CC90 ([2]; Homo sapiens, BT-474, Table 1B, 48 h, MTS, read-out: CC90 values BT474): 9.5 µM; CC50 ([2]; Homo sapiens, BT-474, Table 5, 48 h, MTS, read-out: CC50 B1474): 7.5 µM; CC50 ([3]; Homo sapiens, JIMT-1, Table 1A, 48 h, read-out: CC50 values JIMT1): 3.5 µM; CC90 ([3]; Homo sapiens, JIMT-1, Table 1B, 48 h, read-out: CC90 values JIMT1): 4.9 µM
CCCCCCCCCCCCCCCCOCCCO[C@@H]1O[C@H](CN)[C@@H](O)[C@H](O)[C@H]1N [Compound 4, 1-O-Hexadecyl-2-deoxy-3-O-(2′6′-diamino-2′,6′-dideoxy-β-D-glucopyranosyl)-sn-glycerol]	8	14	8.5	17.5	4	6	–	–	–	–	–	–	–	–	–	–	–	–
CCCCCCCCCCCCCCCCOCC(CO[C@@H]1OC(CO)[C@H](O)[C@H](O)C1N)OC (some centres unmarked) [Compound 69]	–	–	–	–	–	–	12.5	16	1.02	1.5	1.2	1.4	0.3	1.25	0.56	6.5	11	CC50 ([1]; Homo sapiens, PC-3, Table 2A, 48 h, MTS, read-out: CC50 values PC3): 12.5 µM; CC90 ([1]; Homo sapiens, PC-3, Table 2B, 48 h, MTS, read-out: CC90 values PC3): 16 µM; CC50 ([3]; Homo sapiens, JIMT-1, Table 2A, 48 h, read-out: CC50 values JIMT1): 6.5 µM; CC90 ([3]; Homo sapiens, JIMT-1, Table 2B, 48 h, read-out: CC90 values JIMT1): 11 µM

— patent US10806746B2, “Di- and tri-cationic glycosylated antitumor ether lipids, L-gucosylated gaels and rhamnose-linked gaels as cytotoxic agents against epithelial cancer cells and cancer stem cells” (The University of Manitoba, priority 2014, dated 2020)
